Assay results taken from patent US20150362508A1, “EFFECTOR T CELL RSISTANCE” (BENAROYA RESEARCH INSTITUTE AT VIRGINIA MASON, priority 2013, published 2015).

Tested on: CD4+CD25− T cells (Teff)
Assay: CFSE-based polyclonal suppression assay (aTreg:Teff co-culture 1:4, anti-CD3/anti-CD28 beads)
Assay type: cell-based, human
Details: for percent inhibition (Treg-mediated suppression of Teff proliferation): presence vs absence of STAT3 inhibitor, 200 ng/ml for one hour
Experimental: The level of Teff suppression was measured using an in vitro assay in which the CD4^+CD25^− T cells of patients with RRMS were co-cultured with in vitro generated Treg from healthy subjects at a Treg to Teff ratio of 1:4 in the presence of anti-CD3/anti-CD28 coated beads and where proliferation is measured using CFSE.
FIGS. 5A, 5B, and 5C relate to a gating strategy for calculation of percent inhibition in a suppression assay and a cytometric analysis of phosphorylated STAT3 and IL-6Rα surface expression. Referring to FIG. 5A, FACS analysis was performed on day 4 by gating on live cells and excluding the CFSE low population (unstained Treg) to determine the percent of the responder cells that have diluted CFSE. The percent inhibition was determined by comparing the percent of proliferating Teff cells cultured alone to the percent of proliferating Teff cells in co-culture with in vitro generated Treg at a ratio 1:4 (Treg:responder cells).
IL-6 mediated Teff resistance can be reversed through the use of a STAT3 inhibitor (Goodman, W. A., et al., J. Immunol. 186(6), 3336-3345 (2011)). […] Suppression assays were performed in the presence of the STAT3 inhibitor using the same source of control Treg for RRMS and control Teff cells. In FIG. 2D, the percent inhibition for controls (n=3) and RRMS (n=3) subjects in the presence or absence of a STAT3 inhibitor, STATTIC V, was compared using a paired Student t-test.
To determine whether IL-6R mediated signaling could alter suppression in the assay system, Teff were cultured from healthy subjects in the presence or absence of IL-6 in the in vitro co-culture system and assessed percent inhibition on day 4. […] Referring to FIG. 11, CFSE-labeled CD4^+CD25^− T cells were cultured at a ratio of 1:4 (control aTreg:control Teff) either in the absence or presence of 50 ng/ml IL-6 and activated with anti-CD3/anti-CD28 coated beads. FACS analysis was performed to determine percent inhibition on day 4 and data is represented by using a paired analysis (Correlation coefficient (r) 0.8934).
CD4^+CD25^− responder cells were isolated as described above via negative selection using Miltenyi microbeads. Allogeneic CD4^+CD25^− T cells were carboxyfluorescein succinimidyl ester (CFSE)-labelled and cultured at a ratio of 1:4 with aTregs and Dynabeads® (M-450 CD3/CD28 T, Dynal Biotech A.S.A./Life Technologies Corporation, Grand Island, N.Y.) at a ratio of 1:5 (beads:responder cells) as described previously (Schneider, A., and Buckner, J. H., Methods Mol. Biol. 707, 233-241 (2011)). […] Data was acquired using CellQuest™ Pro software (BD Bioscience) and analyzed by FlowJo (Tree Star).

Molecule | percent inhibition (Treg-mediated suppression of Teff proliferation) (RRMS subjects' Teff (n=3), day 4, p<0.01, FIG. 2D) | percent inhibition (Treg-mediated suppression of Teff proliferation) (control subjects' Teff (n=3), day 4, FIG. 2D) | suppression by Treg (percent inhibition) (control aTreg:control Teff 1:4, absence vs presence of 50 ng/ml IL-6, day 4, p=0.02, FIG. 11) | proliferation of Teff (cultures with Teff alone, healthy subjects, absence vs presence of 50 ng/ml IL-6)
O=[N+]([O-])c1ccc2c(c1)S(=O)(=O)C=C2 [STATTIC V] | more marked increase in suppression | enhanced suppression | – | –
IL-6: recombinant human IL-6 from BD Pharmingen, pro-inflammatory cytokine | – | – | significantly decreased | unaffected
